Data as given in PubChem BioAssay (NCI).
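Cultured in 96-well plates, cells were exposed to test compound for 48 hours across five concentrations. GI50 = concentration required for 50% inhibition of growth. TGI: concentration producing complete growth inhibition.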

Experiments:
Assay in all cases: NCI tumour cell line growth inhibition, 48 h
NCI-H23 lung = tested on: NCI-H23 lung
NCI-H460 lung = tested on: NCI-H460 lung
NCI-H522 lung = tested on: NCI-H522 lung
NCI/ADR-RES ovarian = tested on: NCI/ADR-RES ovarian
OVCAR-3 ovarian = tested on: OVCAR-3 ovarian
OVCAR-4 ovarian = tested on: OVCAR-4 ovarian
OVCAR-5 ovarian = tested on: OVCAR-5 ovarian
OVCAR-8 ovarian = tested on: OVCAR-8 ovarian
PC-3 prostate = tested on: PC-3 prostate
RPMI-8226 leukemia = tested on: RPMI-8226 leukemia
RXF 393 renal = tested on: RXF 393 renal
SF-268 CNS = tested on: SF-268 CNS
SF-295 CNS = tested on: SF-295 CNS
SF-539 CNS = tested on: SF-539 CNS
SK-MEL-2 melanoma = tested on: SK-MEL-2 melanoma
SK-MEL-28 melanoma = tested on: SK-MEL-28 melanoma
SK-MEL-5 melanoma = tested on: SK-MEL-5 melanoma
SK-OV-3 ovarian = tested on: SK-OV-3 ovarian
SN12C renal = tested on: SN12C renal
SNB-19 CNS = tested on: SNB-19 CNS
SNB-75 CNS = tested on: SNB-75 CNS
SR leukemia = tested on: SR leukemia
SW-620 colon = tested on: SW-620 colon
T-47D breast = tested on: T-47D breast
TK-10 renal = tested on: TK-10 renal
U251 CNS = tested on: U251 CNS
UACC-257 melanoma = tested on: UACC-257 melanoma
UACC-62 melanoma = tested on: UACC-62 melanoma
UO-31 renal = tested on: UO-31 renal

Structure (SMILES): O=C(N/N=C/c1c(Cl)cccc1Cl)c1cccnc1Nc1cccc(C(F)(F)F)c1
- TGI (NCI-H23 lung): > 100 µM
- GI50 (NCI-H460 lung): 2.04 µM
- TGI (NCI-H460 lung): 35.3 µM
- GI50 (NCI-H522 lung): 2.55 µM
- TGI (NCI-H522 lung): 15 µM
- GI50 (NCI/ADR-RES ovarian): 1.7 µM
- TGI (NCI/ADR-RES ovarian): 44.6 µM
- GI50 (OVCAR-3 ovarian): 2.72 µM
- TGI (OVCAR-3 ovarian): 27.5 µM
- GI50 (OVCAR-4 ovarian): 0.941 µM
- TGI (OVCAR-4 ovarian): 48.3 µM
- GI50 (OVCAR-5 ovarian): 4.43 µM
- TGI (OVCAR-5 ovarian): 47 µM
- GI50 (OVCAR-8 ovarian): 3.49 µM
- TGI (OVCAR-8 ovarian): > 100 µM
- GI50 (PC-3 prostate): 2.79 µM
- TGI (PC-3 prostate): > 100 µM
- GI50 (RPMI-8226 leukemia): 0.717 µM
- TGI (RPMI-8226 leukemia): 4.88 µM
- GI50 (RXF 393 renal): 6.53 µM
- TGI (RXF 393 renal): 38.6 µM
- GI50 (SF-268 CNS): 2.18 µM
- TGI (SF-268 CNS): > 100 µM
- GI50 (SF-295 CNS): 1.78 µM
- TGI (SF-295 CNS): 14 µM
- GI50 (SF-539 CNS): 4.28 µM
- TGI (SF-539 CNS): 19.5 µM
- GI50 (SK-MEL-2 melanoma): 11.1 µM
- TGI (SK-MEL-2 melanoma): 56.1 µM
- GI50 (SK-MEL-28 melanoma): 3.03 µM
- TGI (SK-MEL-28 melanoma): 40.4 µM
- GI50 (SK-MEL-5 melanoma): 2.34 µM
- TGI (SK-MEL-5 melanoma): 6.52 µM
- GI50 (SK-OV-3 ovarian): 3.77 µM
- TGI (SK-OV-3 ovarian): 30.2 µM
- GI50 (SN12C renal): 2.58 µM
- TGI (SN12C renal): 98.9 µM
- GI50 (SNB-19 CNS): 4.62 µM
- TGI (SNB-19 CNS): > 100 µM
- GI50 (SNB-75 CNS): 3.9 µM
- TGI (SNB-75 CNS): 24.8 µM
- GI50 (SR leukemia): 2.57 µM
- TGI (SR leukemia): 28.5 µM
- GI50 (SW-620 colon): 1.66 µM
- TGI (SW-620 colon): > 100 µM
- GI50 (T-47D breast): 2.65 µM
- TGI (T-47D breast): 71 µM
- GI50 (TK-10 renal): 4.4 µM
- TGI (TK-10 renal): 79.2 µM
- GI50 (U251 CNS): 1.47 µM
- TGI (U251 CNS): 11.6 µM
- GI50 (UACC-257 melanoma): 4.31 µM
- TGI (UACC-257 melanoma): > 100 µM
- GI50 (UACC-62 melanoma): 2.46 µM
- TGI (UACC-62 melanoma): 9.64 µM
- GI50 (UO-31 renal): 3 µM
- TGI (UO-31 renal): > 100 µM
